Columns and labels:
[1] = Metabolic stability in human microsomes assessed as maximal achievable bioavailability; assay type: ADME, Microsome; conditions: read-out: Stability
[2] = Permeability, Pe of the compound assessed as drug accumulation; assay type: ADME; conditions: not told; read-out: permeability
[3] = Permeability, Pe of the compound; assay type: ADME; conditions: not told; read-out: permeability
[4] = Solubility, of the compound by LYSA assay; assay type: physicochemical
Cannabinoid receptor 1 [5] = molecular target: Cannabinoid receptor 1 (Mus musculus, UniProt P47746); assay: Agonist activity at mouse CB1 receptor by cAMP read-out assay; assay type: functional
Cannabinoid receptor 1 (Mus musculus, UniProt P47746), sequence (P47746 whole entry): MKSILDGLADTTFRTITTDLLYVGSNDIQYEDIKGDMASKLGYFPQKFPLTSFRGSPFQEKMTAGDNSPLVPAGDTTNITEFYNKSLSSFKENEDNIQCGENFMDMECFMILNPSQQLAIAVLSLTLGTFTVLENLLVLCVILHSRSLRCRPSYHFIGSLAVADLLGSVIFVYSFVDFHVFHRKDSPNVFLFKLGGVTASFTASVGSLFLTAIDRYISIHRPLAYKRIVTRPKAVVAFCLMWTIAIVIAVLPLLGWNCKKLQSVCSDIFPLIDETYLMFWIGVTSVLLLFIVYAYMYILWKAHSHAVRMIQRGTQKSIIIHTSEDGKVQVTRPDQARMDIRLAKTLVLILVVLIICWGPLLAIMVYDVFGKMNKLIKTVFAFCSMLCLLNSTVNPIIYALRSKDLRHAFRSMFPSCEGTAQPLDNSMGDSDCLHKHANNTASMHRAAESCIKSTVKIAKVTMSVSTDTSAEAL

Cannabinoid receptor 2 [6] = molecular target: T1, Cannabinoid receptor 2 (Mus musculus, UniProt P47936); assay: Binding affinity to mouse CB2 receptor
T1 sequence (P47936 whole entry): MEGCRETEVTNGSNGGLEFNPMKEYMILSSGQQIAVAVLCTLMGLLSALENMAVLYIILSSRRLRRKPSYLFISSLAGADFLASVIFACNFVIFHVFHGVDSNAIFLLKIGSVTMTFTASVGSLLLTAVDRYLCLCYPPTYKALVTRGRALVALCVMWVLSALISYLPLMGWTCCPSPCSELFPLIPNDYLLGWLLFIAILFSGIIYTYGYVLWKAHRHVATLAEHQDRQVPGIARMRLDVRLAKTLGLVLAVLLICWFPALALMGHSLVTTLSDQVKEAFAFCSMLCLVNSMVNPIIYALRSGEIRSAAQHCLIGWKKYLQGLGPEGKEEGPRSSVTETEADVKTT

Cannabinoid receptor 2 [7] = molecular target: T2, Cannabinoid receptor 2 (Homo sapiens, UniProt P34972); assay: Binding affinity to human CB2 receptor
T2 sequence (P34972 whole entry): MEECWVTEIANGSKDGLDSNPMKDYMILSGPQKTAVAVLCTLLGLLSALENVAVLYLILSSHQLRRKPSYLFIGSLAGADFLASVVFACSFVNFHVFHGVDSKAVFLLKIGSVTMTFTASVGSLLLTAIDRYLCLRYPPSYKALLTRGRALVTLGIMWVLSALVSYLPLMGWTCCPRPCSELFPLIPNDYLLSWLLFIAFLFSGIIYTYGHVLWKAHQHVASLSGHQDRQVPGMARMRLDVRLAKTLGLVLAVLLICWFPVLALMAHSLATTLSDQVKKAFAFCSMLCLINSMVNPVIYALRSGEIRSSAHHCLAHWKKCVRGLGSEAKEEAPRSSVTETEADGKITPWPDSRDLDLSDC

Cannabinoid receptor 2 [8] = molecular target: T1, Cannabinoid receptor 2; assay: Agonist activity at mouse CB2 receptor by cAMP read-out assay; assay type: functional
Cannabinoid receptor 1 [9] = molecular target: Cannabinoid receptor 1 (Homo sapiens, UniProt P21554); assay: Agonist activity at human CB1 receptor by cAMP read-out assay; assay type: functional
Cannabinoid receptor 1 (Homo sapiens, UniProt P21554), sequence (P21554 whole entry): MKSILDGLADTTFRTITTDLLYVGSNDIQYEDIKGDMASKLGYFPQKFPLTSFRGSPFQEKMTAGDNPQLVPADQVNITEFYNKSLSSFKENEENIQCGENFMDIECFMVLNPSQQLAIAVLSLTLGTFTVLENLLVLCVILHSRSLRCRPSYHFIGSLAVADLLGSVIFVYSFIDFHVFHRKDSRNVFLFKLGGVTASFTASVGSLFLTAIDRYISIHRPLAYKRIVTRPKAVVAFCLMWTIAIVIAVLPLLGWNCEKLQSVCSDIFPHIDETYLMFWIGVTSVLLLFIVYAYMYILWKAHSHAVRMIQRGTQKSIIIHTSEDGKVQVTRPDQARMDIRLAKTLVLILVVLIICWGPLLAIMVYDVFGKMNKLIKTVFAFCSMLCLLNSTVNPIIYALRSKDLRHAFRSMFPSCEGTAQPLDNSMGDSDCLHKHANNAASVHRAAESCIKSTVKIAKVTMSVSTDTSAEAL

Cannabinoid receptor 2 [10] = molecular target: T2, Cannabinoid receptor 2; assay: Agonist activity at human CB2 receptor by beta-arrestin recruitment assay
Cannabinoid receptor 2 [11] = molecular target: T2, Cannabinoid receptor 2; assay: Agonist activity at human CB2 receptor by cAMP read-out assay; assay type: functional
Cannabinoid receptor 2 [12] = molecular target: Cannabinoid receptor 2 (Homo sapiens, UniProt P34972, Q63R); assay: Agonist activity at human CB2 receptor Q63R mutant
Cannabinoid receptor 2 (Homo sapiens, UniProt P34972, Q63R), sequence (P34972 whole entry Q63R): as the sequence (P34972 whole entry) above, with Q63R counted along it

[13] = Lipophilicity, log D of the compound; assay type: physicochemical; conditions: octanol/water

logD [13]	Compound	Fh [1] [%]	Papp [2] [×10⁻⁶ cm/s]	Papp [3] [×10⁻⁶ cm/s]	solubility [4] [µg/mL]	EC50 (Cannabinoid receptor 1 [5]) [nM]	Ki (Cannabinoid receptor 2 [6]) [nM]	Ki (Cannabinoid receptor 2 [7]) [nM]	EC50 (Cannabinoid receptor 2 [8]) [nM]	EC50 (Cannabinoid receptor 1 [9]) [nM]	EC50 (Cannabinoid receptor 2 [10]) [nM]	EC50 (Cannabinoid receptor 2 [11]) [nM]	EC50 (Cannabinoid receptor 2 [12]) [nM]
	O=C(N1Cc2ccccc2C1)C12CC3CC(CC(C3)C1)C2	51	14	0.5	< 1	> 10000	900	500	7	> 10000	600		
	O=C(N1CCCCc2ccccc21)C12CC3CC(CC(C3)C1)C2								> 10000			> 10000	
	CC1(C)CN(C(=O)C23CC4CC(CC(C4)C2)C3)c2ccccc21	39			< 1	> 10000	4900	500	40	> 10000	900	16	36
	Cc1cccc2c1CCN2C(=O)C12CC3CC(CC(C3)C1)C2	46			< 1	> 10000	1300	170	7	> 10000	290	4	11
	O=C(N1CCc2cc(F)ccc21)C12CC3CC(CC(C3)C1)C2	52	4.7	2.3	< 1	> 6000	2400	200	9	> 10000	200		
	O=C(N1CCc2ccc(C(F)(F)F)cc21)C12CC3CC(CC(C3)C1)C2	36			< 1	> 10000	2800	2500	2.9	> 10000	750	15	49
	Cc1cccc2c1N(C(=O)C13CC4CC(CC(C4)C1)C3)CC2	51			< 1	> 10000	> 10000	600	50	> 10000	1600	55	81
4.26	O=C(NC12CC3CC(CC(C3)C1)C2)N1Cc2ccccc2C1	37	26	12	< 1	> 10000	400	270	19	> 10000	700		27
	O=C(C1C2CC3CC(C2)CC1C3)N1CCc2ccccc21 (stereo unspecified)	37	5	0.1	< 1	> 10000	2200	320	20	> 10000	160	7	11
2.77	O=C(N1CCc2ccccc21)C12CC3CC(CC(O)(C3)C1)C2	90	25	10.3	> 318				1000	> 10000	2600		531
	O=C(N1CCCc2ccccc21)C12CC3CC(CC(C3)C1)C2	23			< 1	> 10000	4300	790	126	> 10000	> 10000		55

Compound	logD [13]	Fh [1] [%]	Papp [2] [×10⁻⁶ cm/s]	Papp [3] [×10⁻⁶ cm/s]	solubility [4] [µg/mL]	EC50 (Cannabinoid receptor 1 [5]) [nM]	Ki (Cannabinoid receptor 2 [6]) [nM]	Ki (Cannabinoid receptor 2 [7]) [nM]	EC50 (Cannabinoid receptor 2 [8]) [nM]	EC50 (Cannabinoid receptor 1 [9]) [nM]	EC50 (Cannabinoid receptor 2 [10]) [nM]	EC50 (Cannabinoid receptor 2 [11]) [nM]	EC50 (Cannabinoid receptor 2 [12]) [nM]
O=C(N1CCc2ccccc21)C12CC3CC(CC1C3)C2	3.7	55	0.5	1.9	< 1	> 10000	> 10000	500	51	> 10000	900	22	

From ChEMBL document CHEMBL2331316, “Highly potent and selective cannabinoid receptor 2 agonists: initial hit optimization of an adamantyl hit series identified from high-through-put screening” (Bioorg Med Chem Lett, 2013)
